Source: patent US8859215B2, “Cell binding assay” (GE Healthcare Bio-Sciences AB, priority 2011, dated 2014)
“Also recorded” adds a separate entry of the source.

Tested on: Multicellular Tumor Spheroids (MTS)
Experiment: Fluorescent cell binding assay: Cy3 Annexin V binding to drug treated cells, Western blotting, normalized to actin (apoptosis assay)
Assay type: cell-based
Experimental: Doxorubicin is an anti-cancer drugs aimed to inhibit uncontrolled cell proliferation by inducing apoptosis in cells. Multicellular Tumor Spheroids were treated with Doxorubicin and incubated with Cy 3 Annexin V. The cells are lysed and the proteins are separated and transferred to a membrane. Cy 3 Annexin V can be detected simultaneously with actin targeted by ECL Plex Cy5Western Blotting. The amount of Annexin V binding to the cells upon treatment can easily be quantified after normalization to the house-keeping protein actin.
Cancer cells, Multicellular Tumor Spheroids (MTS) (Sanitini et al. Critical Rev Oncol Hematol 2001, 36:75-87) were treated for 3 days with […] different concentrations (1 μM, 5 μM and 10 μM) of the cancer drug Doxorubicin. To determine the level of drug induced apoptosis the cells were incubated with Cy3 conjugated Annexin V. Non-bound Cy 3 Annexin V was washed away with PBS followed by cell lysis using mammalian cell protein extraction buffer (GE Healthcare). […]
The signals from bound Cy 3 Annexin V and Cy 5 actin are detected simultaneously by scanning the membrane in Cy3 and Cy5 channels using a Typhoon Imager (GE Healthcare, FIG. 2a). The image was analysed with Image Quant TL software (GE Healthcare). […] In this way any uneven sample loading is corrected for and very accurate quantification of the cells capacity to bind Annexin V is determined. […]

**Q.** Which “Annexin V binding to cells (signal ratio Cy3 Annexin V : Cy5 actin), indicating apoptosis” value (cancer cells (MTS) treated for 3 days with 1 μM, 5 μM and 10 μM, compared against control (no treatment)) does the source give for COc1cccc2c1C(=O)c1c(O)c3c(c(O)c1C2=O)C[C@@](O)(C(=O)CO)C[C@@H]3O[C@H]1C[C@H](N)[C@H](O)[C@H](C)O1 [Doxorubicin] here?
**A.** dose dependent binding of Annexin V to treated cells; also recorded: dose dependent Annexin V binding to cells up to 5 μM

**Q.** And the “Annexin V binding to cells (signal ratio Cy3 Annexin V : Cy5 actin)” value (treatment with 10 μM for 3 days, MTS cells)?
**A.** decrease of the Annexin V binding
